# Data taken from US8946142B2, “Beta-arrestin effectors and compositions and methods of use thereof” (Trevena, Inc., priority 2012, dated 2015).
# Where a SMILES comes first, the peptide text is derived from it. [ ]: non-standard residue; d: D form. Tle = CC(C)(C)[C@H](N)C(=O)O; Ac6c = NC1(C(=O)O)CCCCC1; Ac5c = NC1(C(=O)O)CCCC1; Sar = CNCC(=O)O
# Tests used:
# Type in all cases: cell-based
# [1] = target: T1, human AT1R (Homo sapiens, UniProt P30556); experiment: beta-arrestin2 recruitment assay (PathHunter), human AT1R; settings: for Emax: 1 h, read-out: Span (relative to hAngII)
# T1 sequence (P30556 1-359): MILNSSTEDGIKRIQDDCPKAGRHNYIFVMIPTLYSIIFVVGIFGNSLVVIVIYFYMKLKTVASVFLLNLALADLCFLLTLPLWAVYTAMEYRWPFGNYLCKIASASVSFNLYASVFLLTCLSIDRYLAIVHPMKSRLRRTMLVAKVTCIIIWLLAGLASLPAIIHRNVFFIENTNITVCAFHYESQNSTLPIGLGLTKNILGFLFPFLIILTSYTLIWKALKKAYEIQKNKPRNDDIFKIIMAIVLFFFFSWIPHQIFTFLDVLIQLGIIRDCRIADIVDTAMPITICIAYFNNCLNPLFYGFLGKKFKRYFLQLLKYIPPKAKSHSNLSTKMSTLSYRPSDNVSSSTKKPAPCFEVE
# Method in brief: (§1)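 Luminescence, in arbitrary units, read after 60 min room-temperature detection reflects β-arrestin-2 recruitment to human AT1R or rat AT1aR stably expressed in PathHunter HEK293 clones. Cells were exposed to peptides from 1 pM to 100 μM final in HEPES-buffered HBSS for 60 min at 37 °C.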
# [2] = target: T1, human AT1R; experiment: IP1 accumulation assay (IP1 G-protein assay), human AT1R; settings: for Emax: read-out: Span (relative to hAngII)
# Method: (§2) A secondary measure of G protein coupling efficacy was also performed. IP3 is generated by activation of phospholipase C by Gα-q. IP3 is degraded to IP1, which can be forced to accumulate in cells by blocking degradation with lithium chloride. Thus we measured accumulation of IP1 to determine ligand efficacy for G protein activation.
# (§3) IP1 accumulation generated by human and rat angiotensin 2 type 1 receptor (human AT1R and rat AT1aR, respectively) was measured with IP-One Tb kits purchased from Cisbio and used per the manufacturer's instructions. Clonal stably transfected cell lines expressing human AT1TR or rat AT1aR were used for all experiments.
# (§4) For assays, 4,000-8,000 cells were seeded per well in 384-well small-volume microplates “HiBase” small-volume plate in volumes of 20 uL and allowed to grow overnight at 37° C. in 5% CO2. Cell growth media was then replaced with stimulation buffer supplied by Cisbio containing 50 mM lithium chloride. […] For agonist detection, peptides were then further diluted in stimulation buffer to add peptide to the cells to reach final concentrations ranging from 100 uM to 1 pM. Following addition of peptides, cells were incubated at 37° C. in 5% CO2 for 30 minutes and then lysed with 4 uL of pre-mixed HTRF IP-One reagents diluted per manufacturer's instructions (Cisbio). Microplates were incubated for 60-90 minutes at room temperature and then time-resolved fluorescence intensities were measured using a PHERAstar Plus microplate reader from BMG Labtech. IP1 accumulation was measured as change in ratio of time-resolved fluorescent intensities measured at 665 nm and 620 nm.
# [3] = target: T2, rat AT1aR (Rattus norvegicus, UniProt P25095); experiment: beta-arrestin2 recruitment assay (PathHunter), rat AT1aR; settings: for Emax: 1 h, read-out: Span (relative to hAngII)
# T2 sequence (P25095 1-359): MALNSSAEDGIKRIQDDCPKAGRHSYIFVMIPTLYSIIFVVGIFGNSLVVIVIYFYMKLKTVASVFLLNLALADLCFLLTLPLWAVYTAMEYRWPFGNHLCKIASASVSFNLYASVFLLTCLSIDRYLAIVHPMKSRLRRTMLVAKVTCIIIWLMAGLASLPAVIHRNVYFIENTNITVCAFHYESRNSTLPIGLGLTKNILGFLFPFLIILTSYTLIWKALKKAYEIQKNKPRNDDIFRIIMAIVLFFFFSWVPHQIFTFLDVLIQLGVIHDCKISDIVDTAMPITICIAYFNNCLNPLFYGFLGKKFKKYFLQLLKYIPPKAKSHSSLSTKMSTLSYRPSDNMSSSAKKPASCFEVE
# Method in brief: as §1
# [4] = target: T2, rat AT1aR; experiment: IP1 accumulation assay (IP1 G-protein assay), rat AT1aR; settings: for Emax: read-out: Span (relative to hAngII)
# Method: as §2, §3, §4
Structure (SMILES),Emax [1] [%],EC50 ([1]; read-out: EC50) [nM],EC50 ([1]; read-out: pEC50 (converted)) [nM],EC50 (nM) [2],pEC50 [2],Emax [3] [%],EC50 ([3]; read-out: EC50) [nM],EC50 ([3]; read-out: pEC50 (converted)) [nM],EC50 (nM) [4],pEC50 [4],EC50 ([2]; read-out: EC50) [nM],Emax [2] [%],EC50 ([2]; read-out: pEC50 (converted)) [nM],EC50 ([4]; read-out: EC50) [nM],Emax [4] [%],EC50 ([4]; read-out: pEC50 (converted)) [nM]
"CNCC(=O)N[C@@H](CCCNC(=N)N)C(=O)N[C@H](C(=O)N[C@@H](Cc1ccc(O)cc1)C(=O)NC1(C(=O)N[C@@H](Cc2c[nH]cn2)C(=O)N2CCC[C@H]2C(=O)N[C@H](C)C(=O)O)CCCCC1)C(C)C [SEQ ID NO: 57, Sar-Arg-Val-Tyr-cyHex-His-Pro-D-Ala]",< 101,> 3.2,> 3.16,Inactive,Inactive,< 105,> 3.2,> 3.16,Inactive,Inactive,–,–,–,–,–,–
"CNCC(=O)N[C@@H](CCCNC(=N)N)C(=O)N[C@H](C(=O)N[C@@H](Cc1ccc(O)cc1)C(=O)NC1(C(=O)N[C@@H](Cc2c[nH]cn2)C(=O)N2CCC[C@H]2C(=O)N[C@@H](Cc2ccccc2)C(=O)O)CCCCC1)C(C)C [SEQ ID NO: 17, Sar-Arg-Val-Tyr-cyHex-His-Pro-Phe] (H-[Sar]RVY[Ac6c]HPF-OH; N-terminus and C-terminus assumed)",> 101,> 3.2,–,–,–,< 105,3.2,–,–,–,< 1.3,< 103,> 0.631,> 0.6,> 104,–
"CNCC(=O)N[C@@H](CCCNC(=N)N)C(=O)N[C@H](C(=O)N[C@@H](Cc1ccc(O)cc1)C(=O)NC1(C(=O)N[C@@H](Cc2c[nH]cn2)C(=O)N2CCC[C@H]2C(=O)N[C@@H](CO)C(=O)O)CCCCC1)C(C)C [SEQ ID NO: 15, Sar-Arg-Val-Tyr-cyHex-His-Pro-Ser] (H-[Sar]RVY[Ac6c]HPS-OH)",< 101,> 3.2,> 3.16,–,–,< 105,> 3.2,> 3.16,–,–,> 1.3,–,> 0.631,> 0.6,< 104,> 0.631
"CNCC(=O)N[C@@H](CCCNC(=N)N)C(=O)N[C@H](C(=O)N[C@@H](Cc1ccc(O)cc1)C(=O)NC1(C(=O)N[C@@H](Cc2c[nH]cn2)C(=O)N2CCC[C@H]2C(=O)N[C@@H](CO)C(=O)O)CCCC1)C(C)C [SEQ ID NO: 22, Sar-Arg-Val-Tyr-cyPen-His-Pro-Ser] (H-[Sar]RVY[Ac5c]HPS-OH)",< 101,> 3.2,> 3.16,–,–,< 105,> 3.2,> 3.16,–,–,> 1.3,–,> 0.631,> 0.6,< 104,> 0.631
"CNCC(=O)N[C@@H](CCCNC(=N)N)C(=O)N[C@H](C(=O)N[C@@H](Cc1ccc(O)cc1)C(=O)NC1(C(=O)N[C@@H](Cc2c[nH]cn2)C(=O)N2CCC[C@H]2C(=O)N[C@H](C(=O)O)C(C)(C)C)CCCCC1)C(C)C [SEQ ID NO: 56, Sar-Arg-Val-Tyr-cyHex-His-Pro-AA02] (H-[Sar]RVY[Ac6c]HP[Tle]-OH)",< 101,> 3.2,> 3.16,–,–,< 105,> 3.2,> 3.16,–,–,> 1.3,< 103,> 0.631,> 0.6,< 104,> 0.631
"CNCC(=O)N[C@@H](CCCNC(=N)N)C(=O)N[C@H](C(=O)N[C@@H](Cc1ccc(O)cc1)C(=O)NC1(C(=O)N[C@@H](Cc2c[nH]cn2)C(=O)N2CCC[C@H]2C(=O)N[C@@H](C)C(=O)O)CCCCC1)C(C)C [SEQ ID NO: 2, Sar-Arg-Val-Tyr-cyHex-His-Pro-Ala]",< 101,> 3.2,–,–,–,< 105,> 3.2,–,–,–,10000,< 103,> 0.631,> 0.6,–,–
"CNCC(=O)N[C@@H](CCCNC(=N)N)C(=O)N[C@H](C(=O)N[C@@H](Cc1ccc(O)cc1)C(=O)NC1(C(=O)N[C@@H](Cc2c[nH]cn2)C(=O)N2CCC[C@H]2C(=O)N[C@@H](CC(C)C)C(=O)O)CCCC1)C(C)C [SEQ ID NO: 19, Sar-Arg-Val-Tyr-cyPen-His-Pro-Leu] (H-[Sar]RVY[Ac5c]HPL-OH)",< 101,> 3.2,> 3.16,–,–,< 105,> 3.2,> 3.16,–,–,> 1.3,< 103,> 0.631,> 0.6,–,> 0.631
"CNCC(=O)N[C@@H](CCCNC(=N)N)C(=O)N[C@H](C(=O)N[C@@H](Cc1ccc(O)cc1)C(=O)N1CCC[C@H]1C(=O)N[C@@H](Cc1c[nH]cn1)C(=O)N1CCC[C@H]1C(=O)N[C@H](C(=O)O)[C@@H](C)O)C(C)C [SEQ ID NO: 7, Sar-Arg-Val-Tyr-Pro-His-Pro-Thr] (H-[Sar]RVYPHPT-OH)",< 101,> 3.2,> 3.16,–,–,< 105,> 3.2,> 3.16,–,–,> 10000,–,> 0.631,> 0.6,–,> 0.631
"CNCC(=O)N[C@@H](CCCNC(=N)N)C(=O)N[C@H](C(=O)N[C@@H](Cc1ccc(O)cc1)C(=O)NC1(C(=O)N[C@@H](Cc2c[nH]cn2)C(=O)N2CCC[C@H]2C(=O)N[C@@H](CCSC)C(=O)O)CCCCC1)C(C)C [SEQ ID NO: 16, Sar-Arg-Val-Tyr-cyHex-His-Pro-Met] (H-[Sar]RVY[Ac6c]HPM-OH)",< 101,> 3.2,> 3.16,–,–,< 105,> 3.2,> 3.16,–,–,> 1.3,< 103,> 0.631,> 0.6,< 104,> 0.631
"CC[C@H](C)[C@H](NC(=O)[C@@H]1CCCN1C(=O)[C@H](Cc1c[nH]cn1)NC(=O)C1(NC(=O)[C@H](Cc2ccc(O)cc2)NC(=O)[C@@H](NC(=O)[C@H](CCCN=C(N)N)NC(=O)CNC)C(C)C)CCCC1)C(=O)O [SEQ ID NO: 18, Sar-Arg-Val-Tyr-cyPen-His-Pro-Ile] (H-[Sar]RVY[Ac5c]HPI-OH)",–,> 3.2,> 3.16,–,–,–,> 3.2,> 3.16,–,–,> 1.3,–,> 0.631,> 0.6,–,> 0.631
"CNCC(=O)N[C@@H](CCCNC(=N)N)C(=O)N[C@H](C(=O)N[C@@H](Cc1ccc(O)cc1)C(=O)N1CCC[C@H]1C(=O)N[C@@H](Cc1c[nH]cn1)C(=O)N1CCC[C@H]1C(=O)N[C@H](C(=O)O)C(C)C)C(C)C [SEQ ID NO: 6, Sar-Arg-Val-Tyr-Pro-His-Pro-Val] (H-[Sar]RVYPHPV-OH; N-terminus and C-terminus assumed)",< 101,–,–,–,–,< 105,–,–,–,–,–,< 103,–,–,< 104,–
"CNCC(=O)N[C@@H](CCCNC(=N)N)C(=O)N[C@H](C(=O)N[C@@H](Cc1ccc(O)cc1)C(=O)NC1(C(=O)N[C@@H](Cc2c[nH]cn2)C(=O)N2CCC[C@H]2C(=O)N[C@H](C(=O)O)C(C)C)CCCC1)C(C)C [SEQ ID NO: 20, Sar-Arg-Val-Tyr-cyPen-His-Pro-Val] (H-[Sar]RVY[Ac5c]HPV-OH)",< 101,> 3.2,> 3.16,–,–,< 105,> 3.2,> 3.16,–,–,> 1.3,< 103,> 0.631,> 0.6,< 104,> 0.631
